{"source": "patent US9574176B2", "about": "(priority 2012, dated 2017)", "key": {"[1]": {"tested_on": "WT mouse-derived neural stem cells", "format": "cell-based"}, "[2]": {"tested_on": "human neural progenitor cells (NHNP)", "format": "cell-based"}}}
{"substance": "ω-conotoxin GVIA", "values": [{"measurement": "differentiation after passaging with inhibitor", "setting": "[1]", "result": "differentiation into Tuj-1 (class III β-tubulin)-positive nerve cells and GFAP (grail fibrillary acidic protein)-positive astrocytes could be confirmed"}, {"measurement": "differentiation after passaging with inhibitor", "setting": "[2]", "result": "many cells differentiate into Tuj-1 (class III β-tubulin)-positive nerve cells and some cells differentiate into GFAP (grail fibrillary acidic protein)-positive astrocytes"}]}
